Experiments:
[1] = tested on: pseudotypes expressing H5HA and N1NA; format: cell-based, H5N1
[2] = tested on: H5HA and N1NA pseudotypes; format: cell-based, H5N1
[3] = tested on: HIV-1 envelope pseudotypes; format: cell-based
VSV-G pseudotypes = format: cell-based, vesicular stomatitis virus

Compound: CCOC(=O)C1=C[C@@H](OC(CC)CC)[C@H](NC(C)=O)[C@@H](N)C1 [oseltamivir phosphate]
- effect on transduction efficiency [1]: marked dose-dependent decrease
- effect on transduction efficiency [2]: did not reduce
- effect on transduction efficiency [3]: did not reduce
- effect on transduction efficiency (VSV-G pseudotypes): did not reduce

— patent US20100137412A1 (priority 2008, published 2010)
